“And” between values parts separate entries of the source, which are not always exact repeats. Identical values can stand only once. Like-named read-outs stand apart in the source and are kept apart here.

Common to all, as to format: cell-based
Assay [1] concerns HeLa cell line. The assay can be described thus: 3H-nucleoside uptake inhibition by BAs in HeLa cell line. As to conditions: BA 100 μM; for % Inhibition of Ado uptake, HeLa cell line, Sodium buffer / % Inhibition of Ado uptake, HeLa cell line, Sodium-free buffer: 3H-Ado 0.02 μM; for extent of inhibition of guanosine transport, HeLa cells: 3H-guanosine 0.02 μM, Na+-free. The procedure: The bars represent the mean ± SD (n = 3). A representative experiment from 3 to 5 independent experiments is presented. Statistical analysis was performed using one-way ANOVA with Dunnett’s multiple comparisons test; ∗p < 0.032, ∗∗p < 0.0021, ∗∗∗p < 0.0002.
HeLa (CCL-2) and HepG2 (HB_8065) were procured from ATCC. Both cell lines were cultured in Eagle's minimum essential medium and Dulbecco's modified Eagle's medium, respectively, supplemented with 10% fetal bovine serum and penicillin-streptomycin (1X). After cells were tested free for mycoplasma contamination, they were plated in 24-well plates, and transport assays were conducted when the cells were 80% confluent. The cells were briefly rinsed with PBS, and then the uptake of radiolabeled substrates was measured after a 5 min incubation in sodium containing (130 mM NaCl, 20 mM Tris–HCl, 3 mM K2HPO4, 1 mM MgCl2.6H2O, 2 mM CaCl2, 5 mM glucose, pH 7.4) or sodium-free (130 mM N-methyl-D-glucamin, 20 mM Tris–HCl, 3 mM K2HPO4, 1 mM MgCl2.6H2O, 2 mM CaCl2, 5 mM glucose, pH 7.4) transport buffers at 37 °C. Uptake was terminated by washing the cells three times with ice-cold arrest buffer containing 20 mM uridine. The cells were shaken for 30 min in 10% SDS for complete dissolution, after which the radioactivity was quantified with a Beckman liquid scintillation counter. The data are presented as the mean ± SD (n = 3).

Assay [2] has as its target T1, ENT1 (Homo sapiens, UniProt Q99808).
T1 construct: The complete ORF of ENT1 (amplified using forward primer); expressed in transfected cells; host or cells: Xenopus laevis oocytes injected with in vitro-transcribed capped mRNA from pOX-hENT1
T1 sequence (Q99808 1-456): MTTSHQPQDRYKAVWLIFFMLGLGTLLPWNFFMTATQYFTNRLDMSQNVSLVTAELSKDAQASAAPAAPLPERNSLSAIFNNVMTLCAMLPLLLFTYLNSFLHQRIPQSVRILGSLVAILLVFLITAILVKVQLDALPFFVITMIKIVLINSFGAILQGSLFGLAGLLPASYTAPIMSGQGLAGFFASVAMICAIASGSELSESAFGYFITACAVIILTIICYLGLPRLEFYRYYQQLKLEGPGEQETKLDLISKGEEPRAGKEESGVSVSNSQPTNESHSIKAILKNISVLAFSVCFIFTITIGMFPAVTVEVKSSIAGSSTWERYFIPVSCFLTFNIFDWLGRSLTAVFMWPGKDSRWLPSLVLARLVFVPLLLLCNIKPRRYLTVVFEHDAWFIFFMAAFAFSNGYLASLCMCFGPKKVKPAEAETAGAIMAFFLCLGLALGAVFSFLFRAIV
The assay can be described thus: Inhibition of 3H-nucleoside influx by BAs in ENT1-expressing Xenopus oocytes. As to conditions: 3H-Ado 20 μM, sodium-free buffer; for ENT1 % uptake inhibition (Ado): BA 100 μM. The source says:
(§1) We expressed individual ENTs (ENT1, ENT2, and ENT3) in X. laevis oocytes (as described above) and analyzed the Ado influx from each of the ENTs in the presence of different BAs to better understand whether the inhibition profiles differ across human ENTs. […] We also conducted an analysis of the concentration-dependent inhibition of Ado transport to estimate the IC50 values of the BAs (Fig. 4, D–F and Table 2).
(§2) Inhibition of Ado influx in H2O- and ENT-injected oocytes by treatment with different BAs at 100 μM. D–F, concentration-dependent inhibition of Ado influx in ENT-injected oocytes by different BAs. The bars represent the mean ± SD (n = 8–12 oocytes). A representative experiment from 3 to 5 independent experiments is presented. Statistical analysis was performed using one-way ANOVA with Dunnett’s multiple comparisons test; ∗p < 0.032, ∗∗p < 0.0021, ∗∗∗∗p < 0.0001.
(§3) The generated pOX expression constructs were linearized with either the Not1 or Sac1 restriction enzymes. The digested products were purified via phenol‒chloroform extraction. The mRNAs were synthesized using mMESSAGE mMACHINE (Ambion) transcription kits according to the manufacturer’s instructions. The mRNAs were purified via lithium precipitation. Oocytes were procured from Ecocyte. Prior to experiments, procured oocytes were defolliculated by treating with collagenase A-OR II solution followed by washing with Barth’s solution. Following microscopic verification, selected oocytes were incubated to recover overnight at 25 °C in a shaker incubator. Fifty nanoliters (400–800 ng/μl) of equal amounts of mRNAs were injected into defolliculated oocytes the next day. Expression of plasmids was analyzed after RNA isolation from oocyte extracts and conducting qPCR analysis with gene-specific primers as described earlier ([30]). The injected oocytes were incubated at 15 °C for 24 h before transport assays were performed. […] Uptake was terminated by washing the oocytes three times with arrest buffer containing 20 mM uridine. Individual oocytes were shaken overnight in 10% SDS for complete dissolution, and then the radioactivity was quantified with a Beckman liquid scintillation counter. The data are presented as the mean ± SD (n = 8–12 oocytes). A representative experiment from 3 to 5 independent experiments is presented.

In assay [3] the target is T2, ENT3 (Homo sapiens, UniProt Q9BZD2).
T2 construct: plasma membrane–directed ENT3 with a truncated N-terminus (that harbors lysosomal targeting motif); expressed in transfected cells; host or cells: Xenopus laevis oocytes injected with in vitro-transcribed mRNA from pOX-Δ36hENT3
T2 sequence (Q9BZD2 with tags, fused parts or gaps): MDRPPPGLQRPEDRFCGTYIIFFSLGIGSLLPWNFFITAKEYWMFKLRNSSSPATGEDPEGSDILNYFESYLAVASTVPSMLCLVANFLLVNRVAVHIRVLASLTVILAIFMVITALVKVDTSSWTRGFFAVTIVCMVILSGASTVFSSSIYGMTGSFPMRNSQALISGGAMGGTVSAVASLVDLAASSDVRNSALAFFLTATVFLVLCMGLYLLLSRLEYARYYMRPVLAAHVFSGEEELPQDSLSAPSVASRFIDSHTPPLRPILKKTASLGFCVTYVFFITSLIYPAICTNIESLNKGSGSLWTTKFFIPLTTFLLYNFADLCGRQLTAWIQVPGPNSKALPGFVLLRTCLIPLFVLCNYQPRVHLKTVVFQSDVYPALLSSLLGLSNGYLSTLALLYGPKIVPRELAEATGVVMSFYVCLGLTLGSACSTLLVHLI
In words: Inhibition of 3H-nucleoside influx by BAs in ENT3-expressing Xenopus oocytes.
Text: as §1, §2, §3

[4] abbreviates: read-out: ENT1 IC50 (Ado uptake).
Where [5] appears, read: 3H-Ado 20 μM, sodium-free buffer, read-out: ENT3 IC50 (Ado uptake).
Where [6] appears, read: BA 100 μM, 3H-Ado 20 μM, sodium-free buffer.

Turning to `C[C@H](CCC(=O)O)[C@H]1CC[C@H]2[C@@H]3CC[C@@H]4C[C@H](O)CC[C@]4(C)[C@H]3C[C@H](O)[C@]12C` [DCA, deoxycholic acid], in assay [1], the “% Inhibition of Ado uptake, HeLa cell line, Sodium buffer” value (“% Inhibition … Sodium buffer” below) was found to be 41.33 ± 0.10%; the “% Inhibition of Ado uptake, HeLa cell line, Sodium-free buffer” value (from here on “% Inhibition … Sodium-free buffer”) is recorded as 67.86 ± 1.67%; the “extent of inhibition of guanosine transport, HeLa cells” value (“extent of inhibition … HeLa cells” below) came out at 0%. The IC50 in assay [2] (setting [4]) stood at 56.4 ± 14.9 µM. For the same compound, the “ENT1 % uptake inhibition (Ado)” value in assay [2] was 69% and 71.01%. Also, the IC50 in assay [3] (setting [5]) was 0.6 ± 0.1 µM. Further, the “ENT3 % uptake inhibition (Ado)” value in assay [3] (setting [6]) was 79% and 79.9%. Besides, the “inhibition of guanosine transport activity of ENT3” value in assay [3] (BA 100 μM, 3H-guanosine 20 μM) is reported as “inhibited”.
Take `C[C@H](CCC(=O)NCCS(=O)(=O)O)[C@H]1CC[C@H]2[C@@H]3[C@H](O)C[C@@H]4C[C@H](O)CC[C@]4(C)[C@H]3C[C@H](O)[C@]12C` [TCA, taurocholic acid]: in assay [1], the “% Inhibition … Sodium buffer” value is on record as 59.20 ± 0.31%; the “% Inhibition … Sodium-free buffer” value worked out at 67.21 ± 0.08%; the “extent of inhibition … HeLa cells” value amounted to 0%. Moreover, in assay [2], the “ENT1 % uptake inhibition (Ado)” value is 80.39%. In assay [2] (ENT1 IC50 (Ado uptake)), this compound registered an IC50 of 52.9 ± 14.6 µM. The compound also showed an IC50 in assay [3] of 52.6 ± 22.2 µM. The “ENT3 % uptake inhibition (Ado)” value in assay [3] (setting [6]) stood at 72.3%.
For `C[C@H](CCC(=O)O)[C@H]1CC[C@H]2[C@@H]3[C@H](O)C[C@@H]4C[C@H](O)CC[C@]4(C)[C@H]3C[C@H](O)[C@]12C` [CA, cholic acid], in assay [1], the “% Inhibition … Sodium buffer” value was found to be 52.17 ± 0.51%; the “% Inhibition … Sodium-free buffer” value was 48.8% and 48.78 ± 0.52%; the “extent of inhibition … HeLa cells” value was determined as 16.1%. Moreover, in assay [2] (setting [4]), the IC50 worked out at 42.1 ± 8.7 µM. The “ENT1 % uptake inhibition (Ado)” value in assay [2] was determined as 45.48%. Also, the IC50 in assay [3] (setting [5]) turned out to be 1.2 ± 0.4 µM. For the same compound, the “ENT3 % uptake inhibition (Ado)” value in assay [3] (setting [6]) is 77.1%.

These data come from paper PMC12152883, “Bile acids inhibit equilibrative adenosine transport to alter adenosine receptor signaling in cholestasis” (The Journal of Biological Chemistry, 2025).
